Assay results reported in ChEMBL document CHEMBL4385613, “Discovery of Conformational Control Inhibitors Switching off the Activated c-KIT and Targeting a Broad Range of Clinically Relevant c-KIT Mutants” (J Med Chem, 2019).
The source made the active and inactive calls. No cut-off for these calls is given here.

Columns and labels:
Mus musculus = assay: Decrease in c-KIT phosphorylation in NOD-SCID mouse xenografted with human GIST430 cells harboring c-KIT exon 11 primary in-frame V560-L576 deletion mutant and exon 13 heterozygous secondary missense V654A mutant at 20 mg/kg, po measured after 8 hrs by immunoblotting analysis relative to control; type: functional
GIST430 [1] = assay: Antitumor activity against human GIST430 cells harboring c-KIT exon 11 primary in-frame V560-L576 deletion mutant and exon 13 heterozygous secondary missense V654A mutant xenografted in NOD-SCID mouse assessed as reduction in tumor size at 25, po administered for 2 weeks with 2 days rest after day 5 and measured thrice per week up to 14 days during compound dosing relative to control; type: functional; design: scale not given: the % may be the effect or the level left
[2] = biological target: Mast/stem cell growth factor receptor Kit (Homo sapiens, UniProt P10721, V560G); assay: Inhibition of human c-KIT JM domain exon 11 V560G single mutant using poly (Glu,Tyr) 4:1 as substrate in presence of 33P-gamma-ATP by hotspot kinase assay
Mast/stem cell growth factor receptor Kit (Homo sapiens, UniProt P10721, V560G), sequence (P10721 26-976 V560G limits assumed): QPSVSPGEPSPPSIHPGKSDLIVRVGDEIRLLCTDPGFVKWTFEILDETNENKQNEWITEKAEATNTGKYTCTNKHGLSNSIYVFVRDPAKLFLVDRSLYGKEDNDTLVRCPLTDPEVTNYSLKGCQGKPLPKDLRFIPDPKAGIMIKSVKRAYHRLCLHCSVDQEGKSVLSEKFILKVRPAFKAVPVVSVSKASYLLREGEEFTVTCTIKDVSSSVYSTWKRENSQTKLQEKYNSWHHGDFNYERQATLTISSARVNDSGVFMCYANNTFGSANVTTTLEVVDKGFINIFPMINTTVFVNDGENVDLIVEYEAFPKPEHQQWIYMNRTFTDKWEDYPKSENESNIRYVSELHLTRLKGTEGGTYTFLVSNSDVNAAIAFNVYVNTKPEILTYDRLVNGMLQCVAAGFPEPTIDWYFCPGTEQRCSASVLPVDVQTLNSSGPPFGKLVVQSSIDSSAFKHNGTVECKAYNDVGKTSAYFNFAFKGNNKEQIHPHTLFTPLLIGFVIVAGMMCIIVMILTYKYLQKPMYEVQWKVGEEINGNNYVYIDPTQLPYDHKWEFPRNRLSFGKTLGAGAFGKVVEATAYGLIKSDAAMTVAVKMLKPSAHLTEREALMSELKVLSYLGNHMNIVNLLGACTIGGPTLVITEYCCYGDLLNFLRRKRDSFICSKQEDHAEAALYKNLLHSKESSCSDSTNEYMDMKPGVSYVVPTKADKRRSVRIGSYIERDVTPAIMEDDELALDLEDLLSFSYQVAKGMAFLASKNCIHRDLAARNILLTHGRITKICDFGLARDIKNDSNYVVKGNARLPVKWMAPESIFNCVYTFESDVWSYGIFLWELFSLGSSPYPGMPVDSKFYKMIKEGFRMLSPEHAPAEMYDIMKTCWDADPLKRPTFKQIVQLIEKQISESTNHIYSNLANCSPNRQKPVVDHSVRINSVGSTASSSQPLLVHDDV

[3] = biological target: Mast/stem cell growth factor receptor Kit (Homo sapiens, UniProt P10721); assay: Inhibition of unactivated recombinant human N-terminal 6x-His-tagged c-KIT (547 to 935 residues)/(694 to 753 residues deletion) expressed in baculovirus infected Sf9 insect cells assessed as decrease in poly (Glu,Tyr) 4:1 phosphorylation incubated for 30 mins followed by ATP addition and measured after 120 mins by Kinase Glo based luminescence assay
[4] = biological target: Mast/stem cell growth factor receptor Kit (Homo sapiens, UniProt P10721, V654A); assay: Inhibition of human c-KIT ATP binding domain exon 13 V654A single mutant using poly (Glu,Tyr) 4:1 as substrate in presence of 33P-gamma-ATP by hotspot kinase assay
Mast/stem cell growth factor receptor Kit (Homo sapiens, UniProt P10721, V654A), sequence (P10721 26-976 V654A limits assumed): as the sequence (P10721 26-976 V560G limits assumed) above, with G535V, V629A counted along it

[5] = system: Mast/stem cell growth factor receptor Kit (Homo sapiens), P10721 [V654A]; assay: Inhibition of human c-KIT ATP binding domain exon 13 V654A single mutant at 100 nM using poly (Glu,Tyr) 4:1 as substrate in presence of 33P-gamma-ATP by hotspot kinase assay relative to control
Mast/stem cell growth factor receptor Kit (Homo sapiens), P10721 [V654A], sequence (P10721 whole entry V654A, the tested form may be a part): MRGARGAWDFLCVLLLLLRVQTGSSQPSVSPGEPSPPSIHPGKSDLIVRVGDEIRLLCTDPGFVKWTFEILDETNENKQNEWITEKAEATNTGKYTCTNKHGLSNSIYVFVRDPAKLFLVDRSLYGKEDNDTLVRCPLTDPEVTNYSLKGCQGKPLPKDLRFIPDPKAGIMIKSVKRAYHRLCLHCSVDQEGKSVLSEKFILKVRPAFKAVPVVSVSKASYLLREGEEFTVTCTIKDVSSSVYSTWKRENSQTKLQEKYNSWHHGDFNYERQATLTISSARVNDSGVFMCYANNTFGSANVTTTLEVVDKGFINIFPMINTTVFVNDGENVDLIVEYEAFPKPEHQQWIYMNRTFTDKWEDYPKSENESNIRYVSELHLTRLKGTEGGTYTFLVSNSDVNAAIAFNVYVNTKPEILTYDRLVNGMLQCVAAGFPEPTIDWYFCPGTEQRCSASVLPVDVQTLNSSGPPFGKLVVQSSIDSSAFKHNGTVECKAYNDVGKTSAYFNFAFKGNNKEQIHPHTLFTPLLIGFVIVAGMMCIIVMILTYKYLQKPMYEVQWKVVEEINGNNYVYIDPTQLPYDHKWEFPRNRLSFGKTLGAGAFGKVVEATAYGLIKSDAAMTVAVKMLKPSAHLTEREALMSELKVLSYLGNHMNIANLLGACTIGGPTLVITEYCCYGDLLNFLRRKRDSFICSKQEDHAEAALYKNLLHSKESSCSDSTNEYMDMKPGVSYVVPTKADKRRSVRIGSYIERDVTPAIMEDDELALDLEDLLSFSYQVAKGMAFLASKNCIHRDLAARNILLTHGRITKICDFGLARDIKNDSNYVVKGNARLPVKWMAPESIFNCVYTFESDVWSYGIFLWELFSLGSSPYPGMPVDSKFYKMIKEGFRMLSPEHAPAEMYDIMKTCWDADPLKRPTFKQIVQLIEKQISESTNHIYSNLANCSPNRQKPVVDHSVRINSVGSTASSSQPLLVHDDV

[6] = system: Mast/stem cell growth factor receptor Kit (Homo sapiens), P10721 [V560G]; assay: Inhibition of human c-KIT JM domain exon 11 V560G single mutant at 100 nM using poly (Glu,Tyr) 4:1 as substrate in presence of 33P-gamma-ATP by hotspot kinase assay relative to control
Mast/stem cell growth factor receptor Kit (Homo sapiens), P10721 [V560G], sequence (P10721 whole entry V560G, the tested form may be a part): as the sequence (P10721 whole entry V654A, the tested form may be a part) above, with V560G, A654V counted along it

[7] = system: Mast/stem cell growth factor receptor Kit (Homo sapiens), P10721 [V560G]; assay: Inhibition of human c-KIT JM domain exon 11 V560G single mutant at 10 nM using poly (Glu,Tyr) 4:1 as substrate in presence of 33P-gamma-ATP by hotspot kinase assay relative to control
[8] = system: Mast/stem cell growth factor receptor Kit (Homo sapiens), P10721 [T670I]; assay: Inhibition of human c-KIT ATP binding domain exon 14 T670I single mutant at 100 nM using poly (Glu,Tyr) 4:1 as substrate in presence of 33P-gamma-ATP by hotspot kinase assay relative to control
Mast/stem cell growth factor receptor Kit (Homo sapiens), P10721 [T670I], sequence (P10721 whole entry T670I, the tested form may be a part): as the sequence (P10721 whole entry V654A, the tested form may be a part) above, with A654V, T670I counted along it

[9] = system: Mast/stem cell growth factor receptor Kit (Homo sapiens), P10721 [T670I]; assay: Inhibition of human c-KIT ATP binding domain exon 14 T670I single mutant at 10 nM using poly (Glu,Tyr) 4:1 as substrate in presence of 33P-gamma-ATP by hotspot kinase assay relative to control
[10] = biological target: Mast/stem cell growth factor receptor Kit (Homo sapiens, UniProt P10721, D816V); assay: Inhibition of human c-KIT A loop exon 17 D816V single mutant using poly (Glu,Tyr) 4:1 as substrate in presence of 33P-gamma-ATP by hotspot kinase assay
Mast/stem cell growth factor receptor Kit (Homo sapiens, UniProt P10721, D816V), sequence (P10721 26-976 D816V limits assumed): as the sequence (P10721 26-976 V560G limits assumed) above, with G535V, D791V counted along it

[11] = biological target: Mast/stem cell growth factor receptor Kit (Homo sapiens, UniProt P10721, A829P); assay: Inhibition of human c-KIT A loop exon 18 A829P single mutant using poly (Glu,Tyr) 4:1 as substrate in presence of 33P-gamma-ATP by hotspot kinase assay
Mast/stem cell growth factor receptor Kit (Homo sapiens, UniProt P10721, A829P), sequence (P10721 26-976 A829P limits assumed): as the sequence (P10721 26-976 V560G limits assumed) above, with G535V, A804P counted along it

[12] = system: Mast/stem cell growth factor receptor Kit (Homo sapiens), P10721 [V560G,D816V]; assay: Inhibition of human c-KIT A loop exon 11/17 V560G/D816V double mutant at 10 nM using poly (Glu,Tyr) 4:1 as substrate in presence of 33P-gamma-ATP by hotspot kinase assay relative to control
Mast/stem cell growth factor receptor Kit (Homo sapiens), P10721 [V560G,D816V], sequence (P10721 whole entry V560G/D816V): as the sequence (P10721 whole entry V654A, the tested form may be a part) above, with V560G, A654V, D816V counted along it

[13] = system: Mast/stem cell growth factor receptor Kit (Homo sapiens), P10721 [V560G,N822K]; assay: Inhibition of human c-KIT A loop exon 11/17 V560G/N822K double mutant at 10 nM using poly (Glu,Tyr) 4:1 as substrate in presence of 33P-gamma-ATP by hotspot kinase assay relative to control
Mast/stem cell growth factor receptor Kit (Homo sapiens), P10721 [V560G,N822K], sequence (P10721 whole entry V560G/N822K): as the sequence (P10721 whole entry V654A, the tested form may be a part) above, with V560G, A654V, N822K counted along it

GISTT1 = assay: Antiproliferative activity against human GISTT1 cells harboring heterozygous V560-Y578 del mutation assessed as reduction in cell viability by methylene blue staining based assay; type: functional
GIST430 [14] = assay: Antiproliferative activity against human GIST430 cells harboring c-KIT exon 11 primary in-frame V560-L576 deletion mutant and exon 13 heterozygous secondary missense V654A mutant assessed as reduction in cell viability by MTS assay; type: functional
GIST430 [15] = assay: Antiproliferative activity against human GIST430 cells harboring c-KIT exon 11 primary in-frame V560-L576 deletion mutant and exon 13 heterozygous secondary missense V654A mutant assessed as reduction in cell viability by methylene blue staining based assay; type: functional
PC-3 = assay: Antiproliferative activity against human PC3 assessed as reduction in cell viability after 72 hrs by MTS assay; type: functional; settings: PC-3, 72 h
[16] = system: Mast/stem cell growth factor receptor Kit (Homo sapiens), P10721 [UNDEFINED MUTATION]; assay: Inhibition of c-KIT V560-L576 deletion/V654A double mutant phosphorylation in human GIST430 cells assessed as decrease in phosphorylation of MAPK at 10 to 100 nM measured after 24 to 72 hrs by Western blot analysis; type: cell-based
Mast/stem cell growth factor receptor Kit (Homo sapiens), P10721 [UNDEFINED MUTATION], sequence (P10721 whole entry, looked up, stated change not applied): as the sequence (P10721 whole entry V654A, the tested form may be a part) above, with A654V counted along it

[17] = Cmax in ICR mouse at 10 mg/kg, po administered as single dose measured up to 24 hrs by LC-MS/MS analysis; type: ADME, organism-based; design: dose 10 mg/kg, route oral; settings: in vivo
[18] = AUC in ICR mouse at 10 mg/kg, po administered as single dose measured up to 24 hrs by LC-MS/MS analysis; type: ADME, organism-based; design: dose 10 mg/kg, time < 24 hr, route oral; settings: in vivo
[19] = Volume of distribution at steady state in ICR mouse at 2 mg/kg, iv administered as single dose measured up to 24 hrs by LC-MS/MS analysis; type: ADME, organism-based; settings: in vivo, read-out: Vdss
[20] = Plasma clearance in ICR mouse at 2 mg/kg, iv administered as single dose measured up to 24 hrs by LC-MS/MS analysis; type: ADME, organism-based
[21] = Half life in ICR mouse at 10 mg/kg, po administered as single dose measured up to 24 hrs by LC-MS/MS analysis; type: ADME, organism-based; settings: in vivo
[22] = system: Mast/stem cell growth factor receptor Kit (Homo sapiens), P10721 [D816H]; settings: at 100 nM
Mast/stem cell growth factor receptor Kit (Homo sapiens), P10721 [D816H], sequence (P10721 whole entry D816H): as the sequence (P10721 whole entry V654A, the tested form may be a part) above, with A654V, D816H counted along it
Description: Inhibition of human c-KIT A loop exon 17 D816H single mutant at 100 nM using poly (Glu,Tyr) 4:1 as substrate in presence of 33P-gamma-ATP by hotspot kinase assay relative to control

[23] = system: Mast/stem cell growth factor receptor Kit (Homo sapiens), P10721 [D816H]; settings: at 10 nM
Description: Inhibition of human c-KIT A loop exon 17 D816H single mutant at 10 nM using poly (Glu,Tyr) 4:1 as substrate in presence of 33P-gamma-ATP by hotspot kinase assay relative to control

[24] = system: Mast/stem cell growth factor receptor Kit (Homo sapiens), P10721 [D820E]; settings: at 10 nM
Mast/stem cell growth factor receptor Kit (Homo sapiens), P10721 [D820E], sequence (P10721 whole entry D820E): as the sequence (P10721 whole entry V654A, the tested form may be a part) above, with A654V, D820E counted along it
Description: Inhibition of human c-KIT A loop exon 17 D820E single mutant at 10 nM using poly (Glu,Tyr) 4:1 as substrate in presence of 33P-gamma-ATP by hotspot kinase assay relative to control

[25] = system: Mast/stem cell growth factor receptor Kit (Homo sapiens), P10721 [D820Y]; settings: at 100 nM
Mast/stem cell growth factor receptor Kit (Homo sapiens), P10721 [D820Y], sequence (P10721 whole entry D820Y): as the sequence (P10721 whole entry V654A, the tested form may be a part) above, with A654V, D820Y counted along it
Description: Inhibition of human c-KIT A loop exon 17 D820Y single mutant at 100 nM using poly (Glu,Tyr) 4:1 as substrate in presence of 33P-gamma-ATP by hotspot kinase assay relative to control

IC50 [2]: 0.98 nM
IC50 [3]: 69 nM
IC50 [4]: 4.14 nM
inhibition [5]: 75%
inhibition [6]: 99%
inhibition [7]: 95%
inhibition [8]: 83%
inhibition [9]: 55%
IC50 [10]: 8.56 nM
IC50 [11]: 0.89 nM
inhibition [12]: 22%
inhibition [13]: 94%
GI50 (PC-3): > 20000 nM
inhibition [16]: Active
Cmax [17]: 562 ng/mL
AUC at 24 h [18]: 2800 ng·h/mL
Vd [19]: 7.1 L/kg
clearance [20]: 20.2 mL/min/kg
half-life [21]: 2.8 h
inhibition [22]: 96%
inhibition [23]: 73%
inhibition [24]: 83%
inhibition [25]: 100%
Structure (SMILES): CCc1cc(NC(=O)Nc2ccc(-c3cnc(Nc4cc(N5CCN(CC)CC5)ncn4)s3)cc2)no1
inhibition in vivo at 20 mg/kg (Mus musculus): 85%
Activity (GIST430 [1]): 59%
GI50 (GISTT1): 2.2 nM
GI50 (GIST430 [14]): 1 nM
GI50 (GIST430 [15]): 1 nM
